The nature of this data set: Human HepG2 cell viability assay in 384 well format. The format is toxicity, cell-based. Set-up: dose 125 nL, time 70.5 hour; cytotoxicity at 70.5 h: concentration not given beside the values. Conditions: HepG2 cells, read-out: Inhibition.
`CC(C)(C)c1ccc(S(=O)(=O)CCNC(=O)c2cnccn2)cc1`: the cytotoxicity at 70.5 h came to 10.2%.

For `COCCS(=O)(=O)N(Cc1cscn1)c1ccccc1`, the cytotoxicity at 70.5 h was -5.03%. Then `Cc1nn(C)c(Cl)c1C1CCCN1Cc1nnc(C2CC2)n1C` (configuration not stated), with -0.0718%; and `CN(C)S(=O)(=O)N(Cc1cscn1)c1ccccc1`, with 12.4%. In the case of `Cc1ccc(C(=O)OC(C)Cn2cccn2)c(=O)[nH]1` (configuration not stated), the cytotoxicity at 70.5 h was -0.535%. Then `O=C(CN1CCCS1(=O)=O)Nc1cccc(COC2CCCCC2)c1`, with -2.5%. To `COc1cccc2c1CCC2NC(=O)NCc1csc(N(C)C)n1` (configuration not stated) belongs 9.68%.

In the case of `COc1ccccc1C(C#N)NC(=O)c1cccc2c1oc(=O)n2C` (configuration not stated), the cytotoxicity at 70.5 h was -6.2%. Then `COC(C)c1noc(CN(C)c2ncc(Br)cn2)n1` (configuration not stated), with -3.46%.

`COc1c(C2CCCN2Cc2nnc(C3CC3)o2)c(C)nn1C` (configuration not stated): the cytotoxicity at 70.5 h was -4.73%.

For `CN(CCc1ccncc1)C(=O)c1sccc1OC(F)F`, the cytotoxicity at 70.5 h is -10.6%.

As to `COCCNc1ccc(CNCc2cnc3nc(C)cc(C)n23)cc1`, the cytotoxicity at 70.5 h was -9.55%. To `Cc1cc(C)n2c(CNCCNc3ccccc3)cnc2n1` belongs -1.23%; to `CCn1cnnc1CNS(=O)(=O)N1CCCC1c1ccco1` (configuration not stated), -9.43%; to `CN(Cc1ccc(F)c(F)c1)Cc1cc2c(cc1Br)OCCO2`, -8.74%. Then `Cc1ccc(CN(C(=O)NCC2CCS(=O)(=O)C2)C2CC2)o1` (configuration not stated), with -7.11%. Turning to `CC(C)c1nc(CSc2nnc(-c3cccs3)n2CC(N)=O)no1`, the cytotoxicity at 70.5 h is -9.43%. To `CC(C)c1cc(NC(=O)Cn2ccc(=O)c3ccccc32)[nH]n1` belongs 5.53%; to `Cc1cc(NC(=O)Cn2ccc(=O)c3ccccc32)[nH]n1`, -3.31%; to `CC(C)CC(=O)N1Cc2ccccc2CC1C(=O)Nc1nncs1` (configuration not stated), 1.18%. As to `CCc1nnc(CN2CC(n3cccn3)C2)o1`, the cytotoxicity at 70.5 h was -4.74%. To `CN(Cc1nc2ccccc2n1C)C(=O)CCc1cscn1` belongs -1.17%. On to `CCOC(=O)C1(O)CCN(C(=O)Nc2ccc(CC)cc2)CC1`, for which the cytotoxicity at 70.5 h was -4.17%.

As to `NS(=O)(=O)c1ccc(N2CCN(CCCc3cn[nH]c3)CC2)cc1`, the cytotoxicity at 70.5 h worked out at 15.8%. With `COCc1cccc(C(=O)N2CCCN(C(=O)OCC(C)C)CC2)c1`, the cytotoxicity at 70.5 h was -5.18%. Take `CCc1ccc(C2CCCN2C(=O)CNC(=O)CCC(C)C)o1` (configuration not stated): the cytotoxicity at 70.5 h was -1.81%. Then `CCc1ccc(C2CCCN2C(=O)NCC(=O)NCC(C)C)o1` (configuration not stated), with 21.4%. Then `Cc1cc(NC(=O)N2CCOCC2)nn1-c1cccc(Cl)c1`, with -2.25%. To `CCc1ncc2c(n1)CN(Cc1cn3ccsc3n1)CC2` belongs 9.84%; to `CCCC(=O)N1CCCN(C(=O)Nc2ccc(C)s2)CC1`, -4.08%. As for `O=C(c1ccc(OCC2CC2)cc1)N1CCOCC1c1ncon1` (configuration not stated), the cytotoxicity at 70.5 h stood at 1.72%.

Regarding `Cn1c(NCC(=O)N2CCCC2)c(C#N)c(=O)n(C)c1=O`, the cytotoxicity at 70.5 h was found to be 12.4%. Regarding `O=C(Cn1cccnc1=O)NCC1Cc2ccccc2O1` (configuration not stated), the cytotoxicity at 70.5 h was -9.82%. To `CC1CN(C(=O)NCc2cnn(-c3ccc(F)cc3F)c2)CCO1` (configuration not stated) belongs -11.2%; to `CCNC(=O)NCc1cnn(-c2ccc(F)cc2F)c1`, -10.2%; to `Cc1ccsc1C(Cc1ccccc1)NC(=O)CNC(=O)C1CC1` (configuration not stated), -3.91%. To `CCNC(=O)CCC(=O)NC(Cc1ccccc1)c1sccc1C` (configuration not stated) belongs -7.03%. To `CC(=O)c1ccc(C(=O)Nc2ccnc(N(C)C)n2)cc1` belongs 6.64%; to `CSCC(=O)Nc1ncc(I)cc1C`, 11.6%; to `COc1cccc(CC(=O)N2CCN(c3cccc(C)c3)C(C)C2)c1` (configuration not stated), 0.115%. `Clc1ccc(C2(NCc3noc(C4CC4)n3)CCC2)cc1`: the cytotoxicity at 70.5 h was -5.74%. Then `O=C1C(N2CCOC3(CCCC3)C2)CCN1C1CC1` (configuration not stated), with -1.76%; and `COc1ccc(C2(NCc3noc(C4CC4)n3)CCOCC2)cc1`, with -12.1%; and `CC(C)CC(NC(=O)c1ccc[nH]1)C(=O)N1CCC(CO)CC1` (configuration not stated), with -11.2%.

For the molecule `CC(C)CC(C)NCc1cccnc1N1CCOCC1` (configuration not stated), the cytotoxicity at 70.5 h worked out at 19.8%. Then `O=C(c1ccc(-n2cc(Br)cn2)cc1)N1CCN(c2cnccn2)CC1`, with -10%; and `Cc1ccnn1-c1ccc(C(=O)N2CCN(c3cnccn3)CC2)cc1`, with -0.832%; and `O=C(c1ccc(-n2ccnc2)cc1)N1CCN(c2cnccn2)CC1`, with 2.67%. Then `CC(SCC(=O)NC(N)=O)c1ccc(Cl)cc1` (configuration not stated), with -9.52%. Then `CN1CCN(CCCNC(=O)C2CCCCC2)CC1`, with 12.1%; and `O=C(Nc1ccc(F)cc1)C1CCN(Cc2noc(C3CC3)n2)CC1`, with -7.96%. Consider `CCNC(=O)CCS(=O)(=O)Cc1ccn(-c2cccc(F)c2)n1`, for which the cytotoxicity at 70.5 h was determined as 2.48%. Then `N#Cc1ccc(C(=O)N(C2CC2)C2CC(=O)NC2=O)cc1` (configuration not stated), with -8.96%; and `CCOC(=O)c1ccc(NC(=O)c2cc3c([nH]c2=O)CCCC3)cc1`, with -14.4%; and `O=C1CC(N(C(=O)c2ccccc2Br)C2CC2)C(=O)N1` (configuration not stated), with 2.23%.

As to `CC1CCN(C)c2ccccc2N1C(=O)c1ccnc(-n2cncn2)c1` (configuration not stated), the cytotoxicity at 70.5 h was determined as 2.2%.

Take `CC(=O)c1c(C)cc(C)c(Cn2ccnc2S(C)(=O)=O)c1C`: the cytotoxicity at 70.5 h is 6.42%.

Turning to `O=C(c1ccc(-n2cncn2)cc1)N1CCN(c2cnccn2)CC1`, the cytotoxicity at 70.5 h was -9.5%. To `Cc1cnn(Cc2ccc(NC(=O)N[C@@H]3C=C[C@H](CO)C3)cc2)c1` belongs -15.1%; to `CCCN1CCCN(c2ccc(-n3ccc(C)n3)nn2)CC1`, -7.57%.

As to `Cc1ccn(-c2ccc(N3CCCN(Cc4ccccc4)CC3)nn2)n1`, the cytotoxicity at 70.5 h turned out to be 2.19%.

For the molecule `CC1CN(C(=O)c2ccnc(-n3cncn3)c2)c2ccccc2S1` (configuration not stated), the cytotoxicity at 70.5 h was -0.177%. As to `Cn1ncc(C(=O)OCC2CC(=O)N(c3ccccc3)C2)c1C(F)F` (configuration not stated), the cytotoxicity at 70.5 h is -9.29%. For `CC(O)CC(C)(C)CNC(=O)Nc1cnn(-c2ccccc2F)c1` (configuration not stated), the cytotoxicity at 70.5 h is -4.35%. Take `Cc1cccc2ncnc(N3CCOC(C)C3)c12` (configuration not stated): the cytotoxicity at 70.5 h amounted to 2.61%.

In the case of `Cc1c(C(=O)OCC2CC(=O)N(c3ccccc3)C2)cnn1C(C)C` (configuration not stated), the cytotoxicity at 70.5 h is -0.00833%.

Regarding `Cn1cc(C2(C)CN(Cc3ccc(O)c(Cl)c3)CCO2)cn1` (configuration not stated), the cytotoxicity at 70.5 h was -6.24%. To `Cn1cc(C2(C)CN(Cc3ccc(Cl)c(F)c3)CCO2)cn1` (configuration not stated) belongs -7.47%; to `O=C(NCC1CC(=O)N(CCc2ccccc2)C1)c1ccc[nH]1` (configuration not stated), -8.75%.

Regarding `Cc1cc(CN(C)C(=O)NCc2ccccn2)no1`, the cytotoxicity at 70.5 h is -1.24%. To `Cc1cc(CN(C)C(=O)NCc2ccnc(OC3CCCC3)c2)no1` belongs -3.22%; to `O=C(NCCNc1ncccn1)N1CC=C(c2ccccc2)CC1`, -4.56%. For `O=C(NCCNc1cnccn1)N1CCc2ccccc2C1`, the cytotoxicity at 70.5 h was -13.1%. To `COc1c(C)cnc(CNC(=O)c2cc(C)nc3onc(C)c23)c1C` belongs -5.39%; to `O=C(NCc1ccccc1CO)Nc1ccc2c(c1)CCO2`, 7.29%; to `COc1c(CNCc2ccc(Cn3cccn3)cc2)c(C)nn1C`, 3.44%. Take `O=C(NCCNc1cnccn1)N1CC=C(c2ccc(O)cc2)CC1`: the cytotoxicity at 70.5 h is 2.47%. Then `N#Cc1ccccc1N1CCN(CCC(=O)N2CCOCC2)CC1`, with -3.68%; and `N#Cc1ccccc1N1CCN(C(=O)NCC(=O)N2CCCC2)CC1`, with -0.138%; and `COC(=O)c1cc(NS(=O)(=O)c2cn(C)cn2)c(F)cc1F`, with -2.67%. `O=C(CCCc1ccccn1)N1CCC(Nc2cccnn2)CC1`: the cytotoxicity at 70.5 h is -0.523%. To `CN(Cc1ccc(Cl)cc1)S(=O)(=O)N(C)Cc1cnn(C)c1` belongs -1.12%. To `Cc1ccnc(N2CCCC(c3noc(C(C)C)n3)C2)n1` (configuration not stated) belongs 6.3%. Then `CC(C)c1nc(C2CCCN(c3nccc(N4CCCC4)n3)C2)no1` (configuration not stated), with -2.95%.

Consider `CCc1ccc(C(=O)N2CCCC2c2nnc3n2CCCCC3)o1` (configuration not stated), for which the cytotoxicity at 70.5 h is 3.58%. Then `CC(C)c1nnc2n1CC(CNCc1cccnc1)CC2` (configuration not stated), with -6.45%; and `Cc1ncsc1CCN1CCC(N(C)Cc2noc(C(C)C)n2)C1` (configuration not stated), with 6.17%; and `COCc1csc(NC(=O)NCc2ccccn2)n1`, with 5.11%.

Regarding `Cc1c(NCC(C)(C)C)cccc1C(=O)N(C)Cc1ncnn1C`, the cytotoxicity at 70.5 h was found to be 21%. Then `Cc1cc(NC(=O)CNC(C)(C)c2ccccc2)on1`, with 17.8%; and `O=C(CN1CCN(c2ccnc3c(F)ccc(F)c23)CC1)N1CCCC1`, with 8.2%; and `O=C(c1cccnc1OCC(F)(F)F)N1CCCn2ncnc21`, with 14.8%. `O=C(c1ccc(-c2ccccc2)[nH]c1=O)N1CCCn2ncnc21`: the cytotoxicity at 70.5 h was -9.78%. With `CC(C)COCCC(=O)Nc1c(-c2ccc(F)cc2)ncn1C`, the cytotoxicity at 70.5 h is -2.98%. Then `Cc1ncc2c(n1)CN(CC(O)COc1ccc(C#N)cc1)CC2` (configuration not stated), with -3.74%.

In the case of `Cn1cnc(-c2ccc(F)cc2)c1NC(=O)CCNC(=O)C(C)(C)C`, the cytotoxicity at 70.5 h is -7.61%. Then `CCNC(=O)C1CCCN1S(=O)(=O)c1sc(=O)[nH]c1C` (configuration not stated), with -4.2%. As to `CNC(=O)c1cccc(CCNc2ncc(Br)cn2)c1`, the cytotoxicity at 70.5 h came out at 7.32%. Then `Fc1ccc(OC2CCN(Cc3nnc(-c4ccco4)o3)CC2)cc1`, with 18.9%; and `COc1ncc(C)cc1NC(=O)COCC(F)(F)F`, with 2.73%. To `COc1ncc(C)cc1NC(=O)CCc1ccccn1` belongs 17.6%.

On to `CCc1csc(NC(=O)NCc2ccccn2)n1`, for which the cytotoxicity at 70.5 h was -2.4%.

These data come from ChEMBL document CHEMBL3507680, “University of Dundee, Gates Library screen for HepG2 cell viability”.
